Test results from publication PMC8691691 (ACS Chemical Neuroscience, 2021).
Positions count from the first letter of the chain named. Where two headings read alike, the source gives them in different places.

Assays:
GlyT2 = target: T1, GlyT2 (Rattus norvegicus, UniProt P58295); test: [3H]glycine transport by recombinant GlyT2 expressed in COS7 cells; assay type: cell-based; conditions: for Vmax of glycine transport: n = 3; for reversibility of inhibition upon cell washing: washed, transport at 10 μM glycine; for decay of transport inhibition after 1–4 washes: 1 μM inhibitor 10 min, washes with HBS containing NaCl or choline chloride
T1 construct: expressed in transfected cells; host or cells: COS7
T1 sequence (P58295 1-799): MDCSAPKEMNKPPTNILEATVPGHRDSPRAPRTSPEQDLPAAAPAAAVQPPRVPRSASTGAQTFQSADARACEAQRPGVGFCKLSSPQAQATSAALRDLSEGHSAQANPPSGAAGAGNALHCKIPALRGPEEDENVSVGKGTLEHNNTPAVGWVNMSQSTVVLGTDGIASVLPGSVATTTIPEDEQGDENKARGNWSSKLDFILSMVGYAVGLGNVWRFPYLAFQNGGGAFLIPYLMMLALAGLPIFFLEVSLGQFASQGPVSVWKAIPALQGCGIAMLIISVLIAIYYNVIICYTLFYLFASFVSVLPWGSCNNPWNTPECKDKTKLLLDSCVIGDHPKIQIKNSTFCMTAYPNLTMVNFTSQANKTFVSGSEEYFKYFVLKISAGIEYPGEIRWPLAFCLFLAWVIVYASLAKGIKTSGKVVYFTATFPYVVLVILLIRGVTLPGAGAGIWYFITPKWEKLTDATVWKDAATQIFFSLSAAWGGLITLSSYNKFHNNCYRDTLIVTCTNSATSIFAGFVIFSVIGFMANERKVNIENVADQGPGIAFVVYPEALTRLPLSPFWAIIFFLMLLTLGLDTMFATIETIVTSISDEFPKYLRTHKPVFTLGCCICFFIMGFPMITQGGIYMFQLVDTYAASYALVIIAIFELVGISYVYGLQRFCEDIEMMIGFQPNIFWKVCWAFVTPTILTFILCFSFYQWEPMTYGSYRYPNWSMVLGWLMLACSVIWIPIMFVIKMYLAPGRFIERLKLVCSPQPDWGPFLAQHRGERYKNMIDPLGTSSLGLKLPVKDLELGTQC
Experimental: Substitution mutants were generated with the QuikChange II Site-Directed Mutagenesis kit (Agilent Technologies, Santa Clara, CA, USA), using rGlyT2 or rGlyT1 subcloned in pCDNA3.[47] The complete coding region of all of the constructs was sequenced to verify that only the desired mutation had been introduced. […] COS7 cells were grown and transfected using Turbofect Transfection Reagent (Thermo Fisher Scientific, Waltham, MA, USA), following the manufacturer’s protocol (2 μL reagent/μg of DNA). Cells were incubated for 48 h at 37 °C until used.
At the end of the desired time (usually 10 min), reactions were washed and terminated by aspiration. […] A nonlinear curve fitting method was used to obtain IC50 values using Graphpad Prism software, version 6.0, Graphpad, San Diego, CA, USA.

GlyT2 A223C mutant = target: T2, GlyT2 A223C mutant (Rattus norvegicus, UniProt P58295, A223C); test: MTSEA-biotin labeling of A223C mutant in NaCl or choline chloride, COS7 cells; assay type: cell-based; conditions: 1 μM inhibitor; HBS containing NaCl or choline chloride
T2 construct: expressed in transfected cells; host or cells: COS7
T2 sequence (P58295 1-799 A223C): T1 sequence (P58295 1-799) with A223C
Description: Several pieces of evidence were obtained to confirm this prediction (Figure 7). […] A second piece of evidence came from experiments using the […] mutant of GlyT2 that contains an exogenous cysteine in EL1, a region sensitive to the different conformations of the transporter induced by the substrates during the transport cycle.[44] […] Then, the cells were washed and subjected to MTSEA-biotin staining as described above.

[1] = 1 nM inhibitor, glycine 0.5–500 μM
[2] = 10 nM inhibitor, glycine 0.5–500 μM
[3] = 50 nM inhibitor, glycine 0.5–500 μM
[4] = 100 nM inhibitor, glycine 0.5–500 μM
[5] = IC50, inhibition of glycine transport, COS7 cells, 10 μM glycine

Compound	Vmax of glycine transport (GlyT2; [1]) [nmol Gly/mg prot/6 min]	Vmax of glycine transport (GlyT2; [2]) [nmol Gly/mg prot/6 min]	reversibility of inhibition upon cell washing (GlyT2; 50 nM inhibitor)	Vmax of glycine transport (GlyT2; [3]) [nmol Gly/mg prot/6 min]	Vmax of glycine transport (GlyT2; [4]) [nmol Gly/mg prot/6 min]	decay of transport inhibition after 1–4 washes (GlyT2)	IC50 (GlyT2; IC50 (Table S1), wtGlyT2, 10 μM glycine as in Figs. 4 and 5) [nM]	IC50 (GlyT2; IC50, inhibition of [3H]-glycine transport, low sodium, 25 mM NaCl, choline chloride substitution) [nM]	IC50 (GlyT2; IC50, inhibition of [3H]-glycine transport, regular sodium, 150 mM NaCl) [nM]	IC50 (GlyT2; [5]) [nM]	selectivity for GlyT2 (in words) (GlyT2; compared with ALX1393, Figure 2B)	inhibition type (Eadie–Hofstee plots) (GlyT2; glycine 0.5–500 μM)	MTSEA-biotin labeling of A223C, sodium dependence (GlyT2 A223C mutant)	IC50 (GlyT2; 25 mM NaCl, choline chloride substitution, read-out: IC50, inhibition of [3H]-glycine transport, low sodium) [nM]	IC50 (GlyT2; 150 mM NaCl, read-out: IC50, inhibition of [3H]-glycine transport, regular sodium) [nM]	selectivity for GlyT2 over GlyT1 (GlyT2; COS7 cells)	difference of inhibitor EC50 at every glycine concentration from its value at 10 μM glycine (GlyT2; glycine 0.5–500 μM)
COc1cc(C(=O)NCC2(N(C)C)CCCC2)cc(OC)c1OCc1ccccc1 [ORG25543, N-[[1-(dimethylamino)cyclopentyl]methyl]-3,5-dimethoxy-4-(phenylmethoxy)benzamide]	24.6	23.8	irreversible inhibition	18.6	11.5	no inhibition decay was observed	18 ± 5	51.2 ± 12.3	23.8 ± 7.1	17.7 ± 4.6	higher selectivity for GlyT2	mainly noncompetitive behavior	protects the labeling independently of the cation present in the buffer	–	–	–	–
N[C@@H](COC(c1cccc(F)c1)c1ccccc1OCc1ccccc1)C(=O)O (some centres unmarked) [ALX1393]	22.3	18.8	eliminated by cell washing	13.2	30.4	presence of sodium in the washing buffer reduced the washing power	–	–	–	31 ± 2.7	–	noncompetitive behavior	abolished the label in NaCl but left it intact in choline chloride	122 ± 20.9	21.8 ± 4.1	about 2 orders of magnitude	no more than 30%
